Source: PubChem BioAssay (NCI)
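Five compound concentrations were applied to cells in 96-well plates for 48 hours; endpoints were derived by simple linear interpolation of the resulting dose-response curve. TGI: concentration producing complete growth inhibition.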

Assays:
Experiment in all cases: NCI-60 cell line screen, 48 h
[1] = system: HOP-92 NSCLC
[2] = system: RXF-631 renal
[3] = system: NCI-H460 lung
[4] = system: IGROV1 ovarian
[5] = system: COLO 205 colon
[6] = system: MALME-3M melanoma
[7] = system: NCI-H23 lung
[8] = system: SK-MEL-28 melanoma
[9] = system: RXF 393 renal
[10] = system: OVCAR-4 ovarian
[11] = system: CCRF-CEM leukemia
[12] = system: CAKI-1 renal
[13] = system: OVCAR-3 ovarian
[14] = system: HL-60(TB) leukemia
[15] = system: SW-620 colon
[16] = system: HT29 colon
[17] = system: UACC-62 melanoma
[18] = system: K-562 leukemia
[19] = system: SR leukemia
[20] = system: SF-268 CNS
[21] = system: MOLT-4 leukemia
[22] = system: XF 498 CNS
[23] = system: ACHN renal
[24] = system: SN12C renal
[25] = system: 786-0 renal
[26] = system: SK-OV-3 ovarian
[27] = system: HCT-15 colon
[28] = system: DMS 114 small cell lung
[29] = system: HOP-62 NSCLC
[30] = system: HCT-116 colon
[31] = system: NCI-H226 lung
[32] = system: A549 NSCLC
[33] = system: UACC-257 melanoma
[34] = system: SNB-19 CNS
[35] = system: M19-MEL melanoma
[36] = system: RPMI-8226 leukemia
[37] = system: DLD-1 colon
[38] = system: SK-MEL-5 melanoma
[39] = system: M14 melanoma
[40] = system: SF-539 CNS
[41] = system: SNB-75 CNS
[42] = system: HOP-18 NSCLC
[43] = system: SK-MEL-2 melanoma
[44] = system: TK-10 renal
[45] = system: OVCAR-8 ovarian
[46] = system: KM12 colon
[47] = system: SF-295 CNS
[48] = system: KM20L2 colon
[49] = system: LXFL 529 NSCLC
[50] = system: U251 CNS
[51] = system: UO-31 renal
[52] = system: NCI-H522 lung
[53] = system: HCC-2998 colon
[54] = system: OVCAR-5 ovarian
[55] = system: SNB-78 CNS
[56] = system: DMS 273 small cell lung
[57] = system: EKVX NSCLC
[58] = system: A498 renal

COC(=O)C1=CN=C(C(=O)OC)NN1
TGI [1]: > 100 µM | TGI [2]: > 100 µM | TGI [3]: > 100 µM | TGI [4]: > 100 µM | TGI [5]: > 100 µM | TGI [6]: > 100 µM | TGI [7]: > 100 µM | TGI [8]: > 100 µM | TGI [9]: > 100 µM | TGI [10]: > 100 µM | TGI [11]: > 100 µM | TGI [12]: > 100 µM | TGI [13]: > 100 µM | TGI [14]: > 100 µM | TGI [15]: > 100 µM | TGI [16]: > 100 µM | TGI [17]: > 100 µM | TGI [18]: > 100 µM | TGI [19]: > 100 µM | TGI [20]: > 100 µM | TGI [21]: > 100 µM | TGI [22]: > 100 µM | TGI [23]: > 100 µM | TGI [24]: > 100 µM | TGI [25]: > 100 µM | TGI [26]: > 100 µM | TGI [27]: > 100 µM | TGI [28]: > 100 µM | TGI [29]: > 100 µM | TGI [30]: > 100 µM | TGI [31]: > 100 µM | TGI [32]: > 100 µM | TGI [33]: > 100 µM | TGI [34]: > 100 µM | TGI [35]: > 100 µM | TGI [36]: > 100 µM | TGI [37]: > 100 µM | TGI [38]: > 100 µM | TGI [39]: > 100 µM | TGI [40]: > 100 µM | TGI [41]: > 100 µM | TGI [42]: > 100 µM | TGI [43]: > 100 µM | TGI [44]: > 100 µM | TGI [45]: > 100 µM | TGI [46]: > 100 µM | TGI [47]: > 100 µM | TGI [48]: > 100 µM | TGI [49]: > 100 µM | TGI [50]: > 100 µM | TGI [51]: > 100 µM | TGI [52]: > 100 µM

N/C(=N\N=C\c1cccs1)NO
TGI [1]: > 100 µM | TGI [2]: > 100 µM | TGI [3]: > 100 µM | TGI [4]: > 100 µM | TGI [5]: > 100 µM | TGI [6]: > 100 µM | TGI [7]: > 100 µM | TGI [8]: > 100 µM | TGI [53]: > 100 µM | TGI [9]: > 100 µM | TGI [10]: > 100 µM | TGI [11]: > 100 µM | TGI [12]: > 100 µM | TGI [13]: > 100 µM | TGI [14]: > 100 µM | TGI [15]: > 100 µM | TGI [16]: > 100 µM | TGI [17]: 51 µM | TGI [18]: > 100 µM | TGI [19]: > 100 µM | TGI [20]: > 100 µM | TGI [22]: > 100 µM | TGI [23]: > 100 µM | TGI [24]: > 100 µM | TGI [25]: > 100 µM | TGI [26]: > 100 µM | TGI [27]: > 100 µM | TGI [28]: > 100 µM | TGI [29]: > 100 µM | TGI [30]: > 100 µM | TGI [31]: > 100 µM | TGI [32]: > 100 µM | TGI [33]: > 100 µM | TGI [34]: > 100 µM | TGI [35]: > 100 µM | TGI [54]: > 100 µM | TGI [37]: > 100 µM | TGI [39]: > 100 µM | TGI [40]: > 100 µM | TGI [41]: > 100 µM | TGI [55]: > 100 µM | TGI [42]: > 100 µM | TGI [43]: > 100 µM | TGI [44]: > 100 µM | TGI [45]: > 100 µM | TGI [46]: > 100 µM | TGI [47]: > 100 µM | TGI [56]: > 100 µM | TGI [49]: > 100 µM | TGI [50]: > 100 µM | TGI [51]: > 100 µM | TGI [57]: > 100 µM | TGI [52]: > 100 µM | TGI [58]: > 100 µM
